Reference: article PMC5577603, “Marine Inspired 2-(5-Halo-1H-indol-3-yl)-N,N-dimethylethanamines as Modulators of Serotonin Receptors: An Example Illustrating the Power of Bromine as Part of the Uniquely Marine Chemical Space” (Marine Drugs, 2017)
Read-outs that look alike come from different tables or passages of the source.

What was measured:
Test in all cases: receptor binding assay (NIMH PDSP)
5-HT1A = biological target: T1, 5-HT1A (Homo sapiens, UniProt P08908)
T1 construct: gene HTR1A; cloned receptor, NIMH PDSP panel
T1 sequence (P08908 1-422): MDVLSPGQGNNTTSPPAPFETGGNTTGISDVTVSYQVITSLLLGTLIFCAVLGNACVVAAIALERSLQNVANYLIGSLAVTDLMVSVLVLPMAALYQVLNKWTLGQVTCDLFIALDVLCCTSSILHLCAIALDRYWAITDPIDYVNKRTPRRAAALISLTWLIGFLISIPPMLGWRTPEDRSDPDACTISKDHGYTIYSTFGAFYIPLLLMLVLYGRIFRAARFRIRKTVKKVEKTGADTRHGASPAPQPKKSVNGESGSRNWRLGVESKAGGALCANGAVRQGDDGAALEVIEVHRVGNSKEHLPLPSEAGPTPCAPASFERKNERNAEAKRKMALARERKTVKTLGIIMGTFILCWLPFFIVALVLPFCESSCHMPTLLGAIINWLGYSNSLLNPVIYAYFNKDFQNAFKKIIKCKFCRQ
From the text: receptor binding assay (NIMH PDSP) on 5-HT1A

5-HT6 = biological target: T2, 5-HT6 (Homo sapiens, UniProt P50406)
T2 construct: gene HTR6; cloned receptor, NIMH PDSP panel
From the text: receptor binding assay (NIMH PDSP) on 5-HT6

5-HT1B = biological target: T3, 5-HT1B (Homo sapiens, UniProt P28222)
T3 construct: gene HTR1B; cloned receptor, NIMH PDSP panel
From the text: receptor binding assay (NIMH PDSP) on 5-HT1B

5-HT1E = biological target: T4, 5-HT1E (Homo sapiens, UniProt P28566)
T4 construct: gene HTR1E; cloned receptor, NIMH PDSP panel
From the text: receptor binding assay (NIMH PDSP) on 5-HT1E

5-HT7 = biological target: T5, 5-HT7 (Homo sapiens, UniProt P34969)
T5 construct: gene HTR7; cloned receptor, NIMH PDSP panel
From the text: receptor binding assay (NIMH PDSP) on 5-HT7

5-HT5A = biological target: T6, 5-HT5A (Homo sapiens, UniProt P47898)
T6 construct: gene HTR5A; cloned receptor, NIMH PDSP panel
From the text: receptor binding assay (NIMH PDSP) on 5-HT5A

5-HT1D = biological target: T7, 5-HT1D (Homo sapiens, UniProt P28221)
T7 construct: gene HTR1D; cloned receptor, NIMH PDSP panel
From the text: receptor binding assay (NIMH PDSP) on 5-HT1D

5-HT2B = biological target: T8, 5-HT2B (Homo sapiens, UniProt P41595)
T8 construct: gene HTR2B; cloned receptor, NIMH PDSP panel
T8 sequence (P41595 whole entry): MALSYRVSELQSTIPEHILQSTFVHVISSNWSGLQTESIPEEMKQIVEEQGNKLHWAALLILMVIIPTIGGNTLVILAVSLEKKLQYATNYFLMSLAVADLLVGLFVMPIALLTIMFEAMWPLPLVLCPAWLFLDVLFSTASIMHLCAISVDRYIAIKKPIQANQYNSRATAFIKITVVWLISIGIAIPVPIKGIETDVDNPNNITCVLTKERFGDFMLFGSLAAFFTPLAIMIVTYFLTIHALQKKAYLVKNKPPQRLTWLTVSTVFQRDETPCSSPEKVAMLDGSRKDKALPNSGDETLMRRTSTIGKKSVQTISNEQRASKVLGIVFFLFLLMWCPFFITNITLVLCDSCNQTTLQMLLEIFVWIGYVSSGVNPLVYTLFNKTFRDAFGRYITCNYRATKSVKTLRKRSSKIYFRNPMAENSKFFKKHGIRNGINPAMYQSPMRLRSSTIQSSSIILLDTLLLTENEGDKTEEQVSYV

T2 sequence (P50406 whole entry): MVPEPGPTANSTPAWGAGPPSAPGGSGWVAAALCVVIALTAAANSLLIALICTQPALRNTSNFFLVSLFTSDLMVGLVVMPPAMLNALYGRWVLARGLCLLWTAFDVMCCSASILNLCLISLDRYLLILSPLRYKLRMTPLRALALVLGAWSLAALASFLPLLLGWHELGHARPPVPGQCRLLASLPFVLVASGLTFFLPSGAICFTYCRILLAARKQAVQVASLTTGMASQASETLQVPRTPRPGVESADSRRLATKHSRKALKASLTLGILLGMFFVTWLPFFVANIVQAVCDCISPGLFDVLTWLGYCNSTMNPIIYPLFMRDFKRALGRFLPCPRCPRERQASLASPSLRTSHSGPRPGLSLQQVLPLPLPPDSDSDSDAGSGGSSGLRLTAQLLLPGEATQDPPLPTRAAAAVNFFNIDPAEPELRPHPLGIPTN
T5 sequence (P34969 whole entry): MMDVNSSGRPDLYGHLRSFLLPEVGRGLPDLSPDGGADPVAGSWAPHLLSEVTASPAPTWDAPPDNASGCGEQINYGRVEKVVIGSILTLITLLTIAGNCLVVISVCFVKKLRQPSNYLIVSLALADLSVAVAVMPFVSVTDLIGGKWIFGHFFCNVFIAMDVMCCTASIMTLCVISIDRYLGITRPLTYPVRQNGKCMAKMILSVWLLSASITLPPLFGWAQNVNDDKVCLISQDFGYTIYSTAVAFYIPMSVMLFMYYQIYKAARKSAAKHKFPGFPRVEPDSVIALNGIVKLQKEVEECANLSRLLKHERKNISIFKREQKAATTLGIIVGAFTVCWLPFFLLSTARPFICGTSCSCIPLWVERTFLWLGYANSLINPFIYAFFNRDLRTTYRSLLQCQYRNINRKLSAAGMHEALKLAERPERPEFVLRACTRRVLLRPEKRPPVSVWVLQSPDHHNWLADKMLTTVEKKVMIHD
T3 sequence (P28222 whole entry): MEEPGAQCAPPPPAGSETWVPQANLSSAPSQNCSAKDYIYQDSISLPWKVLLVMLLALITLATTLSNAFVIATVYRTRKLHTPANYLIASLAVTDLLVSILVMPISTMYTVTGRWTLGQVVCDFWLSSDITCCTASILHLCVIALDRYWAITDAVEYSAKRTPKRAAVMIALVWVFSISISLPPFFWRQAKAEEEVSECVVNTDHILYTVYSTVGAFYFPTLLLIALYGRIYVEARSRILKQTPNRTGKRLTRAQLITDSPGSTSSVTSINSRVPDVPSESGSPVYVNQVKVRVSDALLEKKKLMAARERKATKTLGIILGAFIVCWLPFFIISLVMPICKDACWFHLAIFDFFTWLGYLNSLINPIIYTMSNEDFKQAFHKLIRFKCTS
T7 sequence (P28221 whole entry): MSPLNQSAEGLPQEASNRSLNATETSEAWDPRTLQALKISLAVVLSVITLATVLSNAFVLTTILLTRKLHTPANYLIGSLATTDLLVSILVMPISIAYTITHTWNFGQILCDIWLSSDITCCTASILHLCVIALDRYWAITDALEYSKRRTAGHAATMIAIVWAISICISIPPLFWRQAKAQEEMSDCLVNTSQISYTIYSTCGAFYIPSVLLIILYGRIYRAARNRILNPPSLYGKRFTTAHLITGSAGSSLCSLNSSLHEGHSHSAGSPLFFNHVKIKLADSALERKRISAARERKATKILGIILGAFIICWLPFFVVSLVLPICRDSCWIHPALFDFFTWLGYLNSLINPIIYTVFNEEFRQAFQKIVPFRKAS
T4 sequence (P28566 whole entry): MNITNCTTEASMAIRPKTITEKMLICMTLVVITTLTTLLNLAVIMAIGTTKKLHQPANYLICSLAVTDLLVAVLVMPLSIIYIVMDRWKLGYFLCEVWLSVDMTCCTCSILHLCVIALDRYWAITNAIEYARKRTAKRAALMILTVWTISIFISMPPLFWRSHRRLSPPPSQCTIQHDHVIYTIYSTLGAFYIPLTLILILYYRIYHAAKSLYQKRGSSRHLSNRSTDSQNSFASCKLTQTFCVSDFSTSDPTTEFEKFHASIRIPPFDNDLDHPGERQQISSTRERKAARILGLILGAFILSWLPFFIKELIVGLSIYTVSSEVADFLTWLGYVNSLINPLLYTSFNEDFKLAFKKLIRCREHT
T6 sequence (P47898 whole entry): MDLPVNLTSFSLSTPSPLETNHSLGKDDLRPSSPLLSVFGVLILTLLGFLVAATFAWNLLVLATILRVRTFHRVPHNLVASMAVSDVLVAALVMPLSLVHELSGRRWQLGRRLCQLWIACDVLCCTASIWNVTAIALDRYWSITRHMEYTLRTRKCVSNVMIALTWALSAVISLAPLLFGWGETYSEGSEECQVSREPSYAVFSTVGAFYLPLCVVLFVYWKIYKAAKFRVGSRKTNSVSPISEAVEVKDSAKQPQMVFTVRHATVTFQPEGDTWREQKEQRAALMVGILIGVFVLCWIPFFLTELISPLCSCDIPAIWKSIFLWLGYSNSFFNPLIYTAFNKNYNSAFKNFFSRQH

Molecule: 2-(1H-indol-3-yl)-N,N-dimethylethanamine [2a]
- Ki (5-HT1A; read-out: Compound 2a Ki): 110 ± 17 nM

Molecule: CN(C)CCc1c[nH]c2ccccc12 [2a, 2-(1H-indol-3-yl)-N,N-dimethylethanamine]
- Ki (5-HT6): 189 ± 32.5 nM
- Ki (5-HT1B): 66 ± 9 nM
- Ki (5-HT1E): > 10000 nM
- Ki (5-HT7): 77 ± 16 nM
- Ki (5-HT5A): > 10000 nM
- Ki (5-HT1D): 29.3 ± 3.7 nM

Molecule: CN(C)CCc1c[nH]c2ccc(I)cc12 [2e, 2-(5-iodo-1H-indol-3-yl)-N,N-dimethylethanamine]
- Ki (5-HT6): 198 ± 20 nM
- Ki (5-HT1B): 43 ± 5 nM
- Ki (5-HT2B): 98 ± 4 nM
- Ki (5-HT1A): 130 ± 16 nM
- Ki (5-HT1E): 310 ± 33 nM
- Ki (5-HT7): 116 ± 13 nM
- Ki (5-HT5A): 1250 nM
- Ki (5-HT1D): 8.5 ± 1.38 nM
